Assay results taken from paper PMC6156440, “A Class 1 Histone Deacetylase as Major Regulator of Secondary Metabolite Production in Aspergillus nidulans” (Frontiers in Microbiology, 2018).

Molecular target: T1, HosA (TAP-tagged HosA) (Aspergillus nidulans, UniProt Q5B6M4)
T1 construct: gene ANIA_03806; TAP-tagged HosA expressed in A. nidulans hosA deletion strain under xylPp; IgG-Sepharose pull-down under native conditions, eluted by TEV protease (CBP part of tag kept); enriched fraction, endogenous complex partners not examined
T1 sequence (Q5B6M4 1-482): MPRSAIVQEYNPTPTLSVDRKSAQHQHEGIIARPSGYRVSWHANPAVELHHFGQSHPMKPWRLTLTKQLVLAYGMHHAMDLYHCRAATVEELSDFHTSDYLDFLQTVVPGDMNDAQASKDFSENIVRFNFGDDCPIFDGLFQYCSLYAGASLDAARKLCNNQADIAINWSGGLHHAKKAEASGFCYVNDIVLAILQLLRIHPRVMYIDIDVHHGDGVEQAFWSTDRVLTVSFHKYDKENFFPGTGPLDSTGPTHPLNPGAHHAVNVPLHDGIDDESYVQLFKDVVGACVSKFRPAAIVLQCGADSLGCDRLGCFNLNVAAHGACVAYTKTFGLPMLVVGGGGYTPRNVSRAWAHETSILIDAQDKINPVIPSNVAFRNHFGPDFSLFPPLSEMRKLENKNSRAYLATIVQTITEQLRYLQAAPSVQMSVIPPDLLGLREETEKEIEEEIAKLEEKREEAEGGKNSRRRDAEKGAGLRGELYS
Assay: fluorometric HDAC assay, labelled acetylated peptide substrate (EMD Millipore kit)
Type: biochemical
Conditions: read-out: % inhibition at 100 nM

CC(/C=C/C(=O)NO)=C\[C@@H](C)C(=O)c1ccc(N(C)C)cc1 [TSA, trichostatin A]
inhibition at 0.1 µM: > 60%
